Assays:
[1] = system: purified calf brain tubulin; test: Saturable binding of PREG [3H] to purified tubulin; settings: tubulin 90 μg/ml, 100 nM PREG [3H] ± 1,000-fold excess PREG
Protocol: The calf tubulin is purified according to the protocol of Weingarten et al. (13), but the step using phosphocellulose is replaced by a cation exchange column chromatography (Fractogel, Merck) (14). The microtubules and the tubulin are prepared in L buffer, supplemented with 1 mM of GTP (buffer A).
(§1) Purified calf brain tubulin (90 μg/ml), MAP2 (45 μg/ml) or tau protein (25 μg/ml) is incubated with 100 nM of PREG [^3H], with or without a 1,000-fold excess of non-radioactive PREG.

MAP2-tubulin copolymers = MAP2-tubulin copolymers (Bos taurus, UniProt A0A3Q1NAK9); test: Competition for PREG [3H] binding to MAP2-tubulin copolymers (RCR); set-up: species or system calf; settings: MAP2-tubulin copolymers; PREG = 100
Protocol: In trials of competition between pregnenolone and different steroids for the binding studied, 0.2 ml of cytosol is incubated with 100 nM of PREG [^3H] and a 1-, 10-, 100-, and 1,000-fold excess of non-radioactive steroid.
The relative competition index was determined as ratios of the concentrations of the competitor (in the […]) versus PREG causing a reduction of 50% of the specific binding of PREG [^3H]×100 (mean±standard error, n=3).
as §1

fetal rat brain neurons = test: Immunocytochemistry of fetal rat brain neuron cultures; format: cell-based; settings: 1 μM for 2 days
Protocol: Primary cultures of E17 fetal neurons are performed according to El-Etr et al. (16). Briefly, this method consists of spreading the dissociated cells (200,000 cells/cm^2) on glass plates covered with poly-1-ornithine and cultured in a completely defined medium in 5% CO2 at 37° C. The culture conditions used permit a practically pure neuron population to be obtained.
24 h after seeding, 1 micromolar pregnenolone (final ethanol concentration 0.01%), or the solvent alone, is added and cultures are continued for 2 days. The cells are fixed in 4% paraformaldehyde, then frozen at −80° C. The cells are duly rehydrated by passages of 5 min in ethanol at concentrations of 100, 90 and 70%. After 2 washings in PBS, for 5 min, the cells are incubated in PBS containing 3% of BSA and 0.1% of Triton X100®, at ambient temperature for 1 h.
After 4 washings in PBS, the cells are incubated at 37° C. for 1 h, then at 4° C. for about 14 h, in the presence of either anti-α-tubulin monoclonal antibody diluted {fraction (1/2,000)}, or anti-MAP2 monoclonal antibody diluted {fraction (1/1,000)}, or anti-double-cortin antiserum diluted 1/300.
After 3 washings in PBS, the secondary antibody is added at ambient temperature, for 45 minutes. […]

fetal microtubules = fetal microtubules (Rattus norvegicus, UniProt P15146); test: Binding of PREG [3H] to purified fetal rat brain microtubules
Protocol: The microtubules are prepared starting from calf brain or adult or fetal rat brain according to an assembly/disassembly method, as a function of the temperature, in vitro (12).
The binding of PREG [^3H] to microtubules prepared by polymerization/depolymerization cycles was determined.

Chain of fetal microtubules (P15146 whole entry): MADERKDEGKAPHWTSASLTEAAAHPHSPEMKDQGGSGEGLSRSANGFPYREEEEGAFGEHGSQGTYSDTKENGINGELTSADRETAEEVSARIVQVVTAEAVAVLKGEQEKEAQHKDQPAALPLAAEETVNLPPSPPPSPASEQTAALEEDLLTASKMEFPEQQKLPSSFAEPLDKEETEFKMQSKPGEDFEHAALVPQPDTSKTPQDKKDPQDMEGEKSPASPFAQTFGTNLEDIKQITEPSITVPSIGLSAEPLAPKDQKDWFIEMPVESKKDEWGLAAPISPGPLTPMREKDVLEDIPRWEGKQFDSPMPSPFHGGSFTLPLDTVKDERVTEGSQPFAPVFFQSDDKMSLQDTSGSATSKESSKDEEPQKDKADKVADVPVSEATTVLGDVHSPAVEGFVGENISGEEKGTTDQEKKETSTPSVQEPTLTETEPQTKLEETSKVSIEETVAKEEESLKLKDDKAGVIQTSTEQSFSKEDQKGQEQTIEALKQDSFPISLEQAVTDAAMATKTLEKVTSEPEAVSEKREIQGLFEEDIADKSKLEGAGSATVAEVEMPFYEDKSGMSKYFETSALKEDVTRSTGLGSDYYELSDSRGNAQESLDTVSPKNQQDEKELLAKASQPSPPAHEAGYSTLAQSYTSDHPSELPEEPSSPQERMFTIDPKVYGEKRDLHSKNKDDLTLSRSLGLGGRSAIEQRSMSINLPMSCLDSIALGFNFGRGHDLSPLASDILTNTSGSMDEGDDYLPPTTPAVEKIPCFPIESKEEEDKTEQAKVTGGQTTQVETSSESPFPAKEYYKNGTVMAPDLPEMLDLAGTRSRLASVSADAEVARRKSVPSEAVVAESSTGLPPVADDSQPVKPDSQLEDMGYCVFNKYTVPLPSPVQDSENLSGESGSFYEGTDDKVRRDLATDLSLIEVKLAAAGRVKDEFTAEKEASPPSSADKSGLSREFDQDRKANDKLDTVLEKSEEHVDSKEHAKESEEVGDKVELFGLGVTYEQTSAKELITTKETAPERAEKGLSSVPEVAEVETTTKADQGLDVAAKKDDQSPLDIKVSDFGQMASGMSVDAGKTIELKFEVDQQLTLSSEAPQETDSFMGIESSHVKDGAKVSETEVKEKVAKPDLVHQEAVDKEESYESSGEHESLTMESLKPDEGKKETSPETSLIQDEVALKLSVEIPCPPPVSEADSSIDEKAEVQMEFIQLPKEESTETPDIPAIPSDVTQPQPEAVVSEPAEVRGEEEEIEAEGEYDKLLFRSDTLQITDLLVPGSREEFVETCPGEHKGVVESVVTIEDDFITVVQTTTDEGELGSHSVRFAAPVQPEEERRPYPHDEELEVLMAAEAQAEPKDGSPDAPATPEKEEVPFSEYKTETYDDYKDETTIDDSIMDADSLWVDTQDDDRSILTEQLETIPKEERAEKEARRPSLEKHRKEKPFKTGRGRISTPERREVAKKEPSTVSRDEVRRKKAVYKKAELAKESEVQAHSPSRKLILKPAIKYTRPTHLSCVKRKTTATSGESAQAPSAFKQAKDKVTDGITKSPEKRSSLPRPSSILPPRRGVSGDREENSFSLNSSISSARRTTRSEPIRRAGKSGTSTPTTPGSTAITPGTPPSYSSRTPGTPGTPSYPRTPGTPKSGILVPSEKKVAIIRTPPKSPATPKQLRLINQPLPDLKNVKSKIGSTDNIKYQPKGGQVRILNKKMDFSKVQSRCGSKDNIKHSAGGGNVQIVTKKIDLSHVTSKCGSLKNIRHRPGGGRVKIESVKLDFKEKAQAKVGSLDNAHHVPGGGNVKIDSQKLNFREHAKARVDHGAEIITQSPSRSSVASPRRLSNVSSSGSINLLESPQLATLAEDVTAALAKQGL
Chain of MAP2-tubulin copolymers (A0A3Q1NAK9 1-1867): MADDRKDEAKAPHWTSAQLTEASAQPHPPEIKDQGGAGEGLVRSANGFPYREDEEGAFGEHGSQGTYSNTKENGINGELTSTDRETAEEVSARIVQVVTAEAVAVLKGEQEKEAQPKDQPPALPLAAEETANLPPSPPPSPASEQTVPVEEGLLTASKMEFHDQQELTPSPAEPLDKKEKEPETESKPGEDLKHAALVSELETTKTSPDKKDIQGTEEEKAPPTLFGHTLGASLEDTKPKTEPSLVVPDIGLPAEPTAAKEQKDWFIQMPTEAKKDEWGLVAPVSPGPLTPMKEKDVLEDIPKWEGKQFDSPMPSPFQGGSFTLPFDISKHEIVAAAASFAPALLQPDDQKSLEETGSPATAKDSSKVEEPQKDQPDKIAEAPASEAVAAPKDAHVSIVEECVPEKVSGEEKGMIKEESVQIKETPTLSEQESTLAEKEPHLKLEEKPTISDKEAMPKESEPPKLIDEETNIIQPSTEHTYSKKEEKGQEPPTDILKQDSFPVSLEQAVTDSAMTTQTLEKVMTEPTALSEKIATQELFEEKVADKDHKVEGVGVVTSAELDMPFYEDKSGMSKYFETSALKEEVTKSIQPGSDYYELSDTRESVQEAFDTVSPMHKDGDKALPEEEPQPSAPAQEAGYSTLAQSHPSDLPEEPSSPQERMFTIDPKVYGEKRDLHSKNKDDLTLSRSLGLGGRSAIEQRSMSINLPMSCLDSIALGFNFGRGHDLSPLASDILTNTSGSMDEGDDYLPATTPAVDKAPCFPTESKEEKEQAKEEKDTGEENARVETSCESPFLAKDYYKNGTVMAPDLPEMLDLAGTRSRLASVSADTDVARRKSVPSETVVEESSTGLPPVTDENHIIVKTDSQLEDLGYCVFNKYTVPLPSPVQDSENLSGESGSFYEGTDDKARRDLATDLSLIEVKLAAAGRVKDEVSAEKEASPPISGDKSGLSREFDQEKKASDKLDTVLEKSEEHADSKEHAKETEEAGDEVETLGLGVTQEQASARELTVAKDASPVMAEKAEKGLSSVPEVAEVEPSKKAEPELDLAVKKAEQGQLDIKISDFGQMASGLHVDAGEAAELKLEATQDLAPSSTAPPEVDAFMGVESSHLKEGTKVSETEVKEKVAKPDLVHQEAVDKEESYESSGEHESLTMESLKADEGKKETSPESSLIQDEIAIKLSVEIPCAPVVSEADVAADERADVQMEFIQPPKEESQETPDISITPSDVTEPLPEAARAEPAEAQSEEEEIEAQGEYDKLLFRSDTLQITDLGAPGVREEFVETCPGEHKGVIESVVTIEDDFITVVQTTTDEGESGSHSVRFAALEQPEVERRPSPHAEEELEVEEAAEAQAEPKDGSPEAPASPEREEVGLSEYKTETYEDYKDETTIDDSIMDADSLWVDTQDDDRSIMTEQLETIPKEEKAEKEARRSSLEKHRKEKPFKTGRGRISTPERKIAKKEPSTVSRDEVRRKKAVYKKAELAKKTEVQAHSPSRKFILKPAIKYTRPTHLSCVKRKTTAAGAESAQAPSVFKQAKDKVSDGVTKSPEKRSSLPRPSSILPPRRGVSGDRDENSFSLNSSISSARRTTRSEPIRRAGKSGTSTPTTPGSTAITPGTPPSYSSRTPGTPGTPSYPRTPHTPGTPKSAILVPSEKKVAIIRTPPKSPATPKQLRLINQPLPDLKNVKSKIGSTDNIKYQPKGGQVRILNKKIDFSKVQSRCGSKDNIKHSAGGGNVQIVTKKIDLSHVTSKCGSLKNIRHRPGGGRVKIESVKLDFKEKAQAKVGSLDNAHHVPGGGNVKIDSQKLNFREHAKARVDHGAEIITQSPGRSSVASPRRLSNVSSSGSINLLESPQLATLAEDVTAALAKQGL

Structure (SMILES): CC(=O)C1CCC2C3CC=C4CC(O)CCC4(C)C3CCC12C (stereo not drawn) [Pregnenolone]
- saturable binding to tubulin [1]: neither tubulin, nor tau protein, nor rabbit IgG binds PREG [^3H] in a saturable manner
- RCR (MAP2-tubulin copolymers): 100
- immunolabeling of MAP2 (fetal rat brain neurons): increases the immunolabeling of MAP2 of the cell bodies and induces its extension to close nerve cells
- staining with anti-α tubulin or anti-double-cortin antibodies (fetal rat brain neurons): does not show any difference
- Bmax (fetal microtubules): 3.7 pmol/mg of protein
- Kd (fetal microtubules): 42.9 nM
